We go through 18 molecules from the supplement of paper PMC10933113.

Structures can show the parent of a compound that is named as a salt. ± gives the uncertainty stated by the source.

For one data set, the system named is THP-1. Kind of data set: efficacy of IL-8 induction relative to DMSO (% activity); higher = stronger induction. The settings on record: exposure time: 18 h.
For data set [1], the system named is lysine peptide Ac-RFAAKAA-COOH. Description: efficacy of lysine peptide change (negative = depletion) (% activity); higher = less depletion. The settings on record: incubation time: 24 h.
The test system of data set [2] is cysteine peptide Ac-RFAACAA-COOH. Kind of data set: efficacy of cysteine peptide change (negative = depletion) (% activity); higher = less depletion. The conditions noted are these: incubation time: 24 h.
The subject of data set [3] is KeratinoSens (HaCaT ARE-luciferase) cells. Description: efficacy of ARE luciferase induction relative to DMSO (% activity over DMSO); higher = stronger induction. The conditions noted are these: exposure time: 24 h.
For data set [4] the test system is unchanged. Description: cytotoxicity AC50 (CellTiter-Fluor viability); higher = less cytotoxic. The settings on record: exposure time: 24 h.

Turning to `CCCCCCCCCCC=CC1CC(=O)OC1=O` (stereo unspecified) [3-(Dodecenyl)dihydro-2,5-furandione], in the data set on THP-1, the “efficacy of IL-8 induction” value was -1.83 ± 3.2. Also, the “efficacy of lysine peptide change” value in data set [1] is -22.7 ± 13. In addition, the “efficacy of cysteine peptide change” value in data set [2] was determined as 0. For the same molecule, the “efficacy of ARE luciferase induction” value in data set [3] was found to be 3.3 ± 5.7.

Regarding `CC(C)(C)c1ccc(C(=O)CCCCl)cc1` [4'-Tert-butyl-4-chlorobutyrophenone], the “efficacy of IL-8 induction” value with THP-1 was 0. Moreover, in data set [1], the “efficacy of lysine peptide change” value is 17.7 ± 16. The “efficacy of cysteine peptide change” value in data set [2] was found to be 94.9. For the same molecule, in data set [3], the “efficacy of ARE luciferase induction” value was determined as 38.6 ± 9.4.

As to `CCCCCCOc1ccc(O)cc1` [4-(Hexyloxy)phenol], in the data set on THP-1, the “efficacy of IL-8 induction” value was 0.98 ± 10. The “efficacy of ARE luciferase induction” value in data set [3] was 20 ± 18.

Regarding `Nc1ccc(-c2ccccc2)cc1` [4-Biphenylamine hydrochloride], the “efficacy of IL-8 induction” value with THP-1 amounted to 0. For the same molecule, the “efficacy of lysine peptide change” value in data set [1] is -3.96 ± 11. Also, the “efficacy of cysteine peptide change” value in data set [2] is -6.9 ± 6. Also, in data set [3], the “efficacy of ARE luciferase induction” value was found to be 12.3 ± 11.

Turning to `Nc1ccc([N+](=O)[O-])cc1N` [4-Nitro-1,2-phenylenediamine], the “cytotoxicity AC50” value in data set [4] is 41.6 ± 5.3 µM. The “efficacy of IL-8 induction” value in the data set with THP-1 is 3.64 ± 4.4. For the same molecule, the “efficacy of lysine peptide change” value in data set [1] worked out at 1.34 ± 22. In addition, the “efficacy of cysteine peptide change” value in data set [2] was -16.4 ± 5.1. Further, in data set [3], the “efficacy of ARE luciferase induction” value worked out at 46.2 ± 27.

Regarding `COc1ccc2[nH]cc(CCN(C(C)C)C(C)C)c2c1` [5-Methoxy-N,N-diisopropyltryptamine hydrochloride], the “efficacy of IL-8 induction” value in the data set with THP-1 amounted to 1.45 ± 2.5. Besides, the “efficacy of lysine peptide change” value in data set [1] came to 138 ± 57. In addition, the “efficacy of cysteine peptide change” value in data set [2] is -5.5 ± 9.5. Moreover, the “efficacy of ARE luciferase induction” value in data set [3] is 19.1 ± 7.6.

For `O=C(O)c1ccc(=O)[nH]c1` [6-Hydroxynicotinic acid], the “efficacy of IL-8 induction” value with THP-1 amounted to 0. Moreover, the “efficacy of lysine peptide change” value in data set [1] is -6.78 ± 17. Moreover, in data set [2], the “efficacy of cysteine peptide change” value was 12.2 ± 12. Moreover, in data set [3], the “efficacy of ARE luciferase induction” value was 27.8 ± 30.

For `CCc1cccc(CC)c1N(COC)C(=O)CCl` [Alachlor], in data set [4], the “cytotoxicity AC50” value turned out to be 48.5 ± 6.7 µM. Also, the “efficacy of IL-8 induction” value in the data set on THP-1 came out at 0. The “efficacy of lysine peptide change” value in data set [1] turned out to be 64.4 ± 24. In data set [2], the “efficacy of cysteine peptide change” value is 0. In data set [3], the “efficacy of ARE luciferase induction” value came to 35.9 ± 29.

As for `CC(C)c1ccc2oc3nc(N)c(C(=O)O)cc3c(=O)c2c1` [Amlexanox], in the data set with THP-1, the “efficacy of IL-8 induction” value amounted to 8.52 ± 7.4. Besides, the “efficacy of lysine peptide change” value in data set [1] amounted to 7.32 ± 13. Further, in data set [2], the “efficacy of cysteine peptide change” value is 4.82 ± 8.3. In addition, the “efficacy of ARE luciferase induction” value in data set [3] was 28.6 ± 29.

Take `CCc1oc2ccccc2c1C(=O)c1cc(I)c(O)c(I)c1` [Benziodarone]: the “efficacy of IL-8 induction” value in the data set with THP-1 was determined as 0. In addition, the “efficacy of lysine peptide change” value in data set [1] was -10.2 ± 9.7. Besides, the “efficacy of cysteine peptide change” value in data set [2] was -8.72 ± 7.7. In addition, the “efficacy of ARE luciferase induction” value in data set [3] worked out at 17.7 ± 22.

As to `CCCCCCCCCCCCCCCC[N+](C)(C)Cc1ccccc1` [Benzylhexadecyldimethylammonium chloride], the “cytotoxicity AC50” value in data set [4] is 31.8 ± 3.6 µM. The “efficacy of IL-8 induction” value with THP-1 was found to be 45 ± 9.3. Also, the “efficacy of lysine peptide change” value in data set [1] stood at 66 ± 24. In data set [2], the “efficacy of cysteine peptide change” value was found to be 8.87 ± 8.5. Also, the “efficacy of ARE luciferase induction” value in data set [3] is -36.7 ± 2.6.

On to `c1cc(OCC2CO2)ccc1Cc1ccc(OCC2CO2)cc1` (stereo unspecified) [Bis[4-(glycidyloxy)phenyl]methane], for which the “cytotoxicity AC50” value in data set [4] was 57 ± 12 µM. For the same molecule, in the data set on THP-1, the “efficacy of IL-8 induction” value is -2.51 ± 4.3. For the same molecule, in data set [1], the “efficacy of lysine peptide change” value stood at 62.7 ± 21. The “efficacy of cysteine peptide change” value in data set [2] was -4.82 ± 8.3. Further, the “efficacy of ARE luciferase induction” value in data set [3] is -12 ± 59.

As for `CC(=O)Oc1ccc(C(c2ccc(OC(C)=O)cc2)c2ccccn2)cc1` [Bisacodyl], the “efficacy of IL-8 induction” value in the data set on THP-1 came out at 0. For the same molecule, the “efficacy of lysine peptide change” value in data set [1] turned out to be 26.8 ± 7.9. For the same molecule, in data set [2], the “efficacy of cysteine peptide change” value was 3.97 ± 6.9. Besides, the “efficacy of ARE luciferase induction” value in data set [3] is 30.5 ± 18.

For `CCC(C)(c1ccc(O)cc1)c1ccc(O)cc1` [Bisphenol B], the “efficacy of IL-8 induction” value in the data set on THP-1 was found to be 9.18 ± 8.1. Moreover, the “efficacy of lysine peptide change” value in data set [1] was found to be 31.9 ± 11. In data set [2], the “efficacy of cysteine peptide change” value amounted to 2.81 ± 4.9. The “efficacy of ARE luciferase induction” value in data set [3] was 38.7 ± 21.

In the case of `CC(C)C[C@H](NC(=O)[C@H](Cc1ccccc1)NC(=O)c1cnccn1)B(O)O` [Bortezomib], in data set [4], the “cytotoxicity AC50” value is 0.33 ± 0.02 µM. In addition, the “efficacy of IL-8 induction” value in the data set with THP-1 was found to be 504 ± 17. In addition, the “efficacy of lysine peptide change” value in data set [1] is -35 ± 19. Also, the “efficacy of cysteine peptide change” value in data set [2] was 8.93 ± 9.3. Also, the “efficacy of ARE luciferase induction” value in data set [3] is -42.8 ± 3.7.

Turning to `COc1cc(Nc2c(C#N)cnc3cc(OCCCN4CCN(C)CC4)c(OC)cc23)c(Cl)cc1Cl` [Bosutinib], the “cytotoxicity AC50” value in data set [4] was determined as 12.6 µM. Further, the “efficacy of IL-8 induction” value in the data set on THP-1 was 7.85 ± 7.5. For the same molecule, in data set [1], the “efficacy of lysine peptide change” value was found to be 120 ± 29. In data set [2], the “efficacy of cysteine peptide change” value worked out at 32.5 ± 12. For the same molecule, the “efficacy of ARE luciferase induction” value in data set [3] is -18.8 ± 8.1.

Take `CCCCCCCC(=O)Oc1c(Br)cc(C#N)cc1Br` [Bromoxynil octanoate]: the “efficacy of IL-8 induction” value in the data set on THP-1 is 0. Besides, the “efficacy of lysine peptide change” value in data set [1] was -17.8 ± 10. Further, the “efficacy of cysteine peptide change” value in data set [2] is -2.83 ± 4.9. The “efficacy of ARE luciferase induction” value in data set [3] turned out to be 2.61 ± 12.

On to `C=C(C)C(=O)Nc1ccc(Cl)c(Cl)c1` [Chloranocryl], for which the “efficacy of IL-8 induction” value with THP-1 turned out to be 1.33 ± 7.2. Also, the “efficacy of lysine peptide change” value in data set [1] was 82.1 ± 16. Moreover, the “efficacy of cysteine peptide change” value in data set [2] stood at 4.33 ± 7.5. In addition, in data set [3], the “efficacy of ARE luciferase induction” value was found to be 23.2 ± 7.
